{"source": "paper PMC4939794", "about": "(Biochemistry, 2015)", "origin": "cited, not measured here", "data": [{"substance": "green fluorescent protein [GFP]", "values": [{"measurement": "CRO maturation half-life", "setting": "depending on the variant and the conditions", "value": "19 to 83", "unit": "min"}, {"measurement": "folding rates", "setting": "multiphasic, three to five folding rates", "value": "10 to 0.01", "unit": "s^−1"}, {"measurement": "unfolding half-life", "setting": "water at neutral pH, standard temperature and pressure, estimated", "value": "greater than 1 month"}]}]}
